Reference: patent US20110039721A1, “METHOD FOR PREDICTION ABOUT CARCINOGENICITY OF SUBSTANCE IN RODENT” (Chemicals Evaluation and Research Institute, priority 2007, published 2011)

What was measured:
[1] = system: mRNA expressed from the genes (A) to (D) in rat liver; assay: Behavior of genes (mRNA expression level, oligo-DNA microarray) in rat liver after 28-day oral administration; assay type: in vivo
Procedure, shortened: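 Male F344 SPF rats, 5 weeks old, four per group, dosed by oral gavage once daily for 28 days with test chemical or matched-volume solvent. Liver total RNA profiled on oligo-DNA microarray. Change ≥1.5-fold or ≤1/1.5 versus vehicle counted as significant if its direction matched that seen with other carcinogens.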

liver = conditions: in vivo; cited from earlier work
rodent = conditions: in vivo; cited from earlier work
[2] = (C), Unigene Rn.120914, defined direction +, rat liver, oral once daily 28 days

SMILES: CCOC(N)=O [TS054, Urethane]
- Behavior of gene caused by administration of chemical substance, Gene No. 4846 ([1]; (A), Unigene Rn.144554, defined direction +, rat liver, oral once daily 28 days): +
- Behavior of gene caused by administration of chemical substance, Gene No. 4218 ([1]; (A), Unigene Rn.167075, defined direction +, rat liver, oral once daily 28 days, significant = 1.5 times or more or 1/1.5 or less of control): −
- Behavior of gene caused by administration of chemical substance, Gene No. 2026 ([1]; (A), Unigene Rn.167075, defined direction −, rat liver, oral once daily 28 days): −
- Behavior of gene caused by administration of chemical substance, Gene No. 6182 ([1]; (A), Unigene Rn.5834, defined direction +, rat liver, oral once daily 28 days): +
- Behavior of gene caused by administration of chemical substance, Gene No. 5600 ([1]; (A), Unigene Rn.9836, defined direction +, rat liver, oral once daily 28 days): −
- Behavior of gene caused by administration of chemical substance, Gene No. 1494 ([1]; (B), Unigene Rn.1430, defined direction −, rat liver, oral once daily 28 days): −
- Behavior of gene caused by administration of chemical substance, Gene No. 2045 ([1]; (B), Unigene Rn.19329, defined direction +, rat liver, oral once daily 28 days): −
- Behavior of gene caused by administration of chemical substance, Gene No. 2203 ([1]; (B), Unigene Rn.21240, defined direction +, rat liver, oral once daily 28 days): −
- Behavior of gene caused by administration of chemical substance, Gene No. 533 ([1]; (C), Unigene Rn.106184, defined direction +, rat liver, oral once daily 28 days): −
- Behavior of gene caused by administration of chemical substance, Gene No. 725 ([1]; (C), Unigene Rn.108075, defined direction −, rat liver, oral once daily 28 days): −
- Behavior of gene caused by administration of chemical substance, Gene No. 1163 ([1]; (C), Unigene Rn.11766, defined direction +, rat liver, oral once daily 28 days): −
- Behavior of gene caused by administration of chemical substance, Gene No. 4973 ([1]; (C), Unigene Rn.118529, defined direction −, rat liver, oral once daily 28 days): −
- Behavior of gene caused by administration of chemical substance, Gene No. 4095 ([1]; (C), Unigene Rn.119024, defined direction −, rat liver, oral once daily 28 days): −
- Behavior of gene caused by administration of chemical substance, Gene No. 1334 [1, 2]: −
- Behavior of gene caused by administration of chemical substance, Gene No. 6620 [1, 2]: −
- Behavior of gene caused by administration of chemical substance, Gene No. 6303 ([1]; (C), Unigene Rn.123063, defined direction −, rat liver, oral once daily 28 days): −
- Behavior of gene caused by administration of chemical substance, Gene No. 5878 ([1]; (C), Unigene Rn.143213, defined direction −, rat liver, oral once daily 28 days): −
- Behavior of gene caused by administration of chemical substance, Gene No. 1131 ([1]; (C), Unigene Rn.144946, defined direction −, rat liver, oral once daily 28 days): −
- Behavior of gene caused by administration of chemical substance, Gene No. 1562 ([1]; (C), Unigene Rn.14744, defined direction −, rat liver, oral once daily 28 days): −
- Behavior of gene caused by administration of chemical substance, Gene No. 1741 ([1]; (C), Unigene Rn.1647, defined direction −, rat liver, oral once daily 28 days): −
- Behavior of gene caused by administration of chemical substance, Gene No. 893 ([1]; (C), Unigene Rn.164817, defined direction +, rat liver, oral once daily 28 days): −
- Behavior of gene caused by administration of chemical substance, Gene No. 6026 ([1]; (C), Unigene Rn.167685, defined direction −, rat liver, oral once daily 28 days): −
- Behavior of gene caused by administration of chemical substance, Gene No. 154 ([1]; (C), Unigene Rn.185941, defined direction −, rat liver, oral once daily 28 days): −
- Behavior of gene caused by administration of chemical substance, Gene No. 1993 ([1]; (C), Unigene Rn.18728, defined direction −, rat liver, oral once daily 28 days): −
- Behavior of gene caused by administration of chemical substance, Gene No. 813 ([1]; (C), Unigene Rn.201760, defined direction +, rat liver, oral once daily 28 days): −
- Behavior of gene caused by administration of chemical substance, Gene No. 2494 ([1]; (C), Unigene Rn.23969, defined direction +, rat liver, oral once daily 28 days): −
- Behavior of gene caused by administration of chemical substance, Gene No. 2546 ([1]; (C), Unigene Rn.24561, defined direction −, rat liver, oral once daily 28 days): −
- Behavior of gene caused by administration of chemical substance, Gene No. 3776 ([1]; (C), Unigene Rn.43232, defined direction −, rat liver, oral once daily 28 days): −
- Behavior of gene caused by administration of chemical substance, Gene No. 3929 ([1]; (C), Unigene Rn.4620, defined direction +, rat liver, oral once daily 28 days): −
- Behavior of gene caused by administration of chemical substance, Gene No. 1119 ([1]; (C), Unigene Rn.9757, defined direction +, rat liver, oral once daily 28 days): −
- Behavior of gene caused by administration of chemical substance, Gene No. 6742 ([1]; (C), Unigene Rn.9779, defined direction +, rat liver, oral once daily 28 days): −
- Behavior of gene caused by administration of chemical substance, Gene No. 5634 ([1]; (C), Unigene Rn.9862, defined direction −, rat liver, oral once daily 28 days): −
- Behavior of gene caused by administration of chemical substance, Gene No. 5726 ([1]; (D), Unigene Rn.9939, defined direction −, rat liver, oral once daily 28 days): +
- Liver carcinogenicity (liver): Cr+
- Carcinogenicity (rodent): C+

SMILES: Cl[C@H]1[C@H](Cl)[C@@H](Cl)[C@@H](Cl)[C@H](Cl)[C@H]1Cl [TS057, Lindane]
- Behavior of gene caused by administration of chemical substance, Gene No. 154 ([1]; rat, in vivo): −
- Behavior of gene caused by administration of chemical substance, Gene No. 533 ([1]; rat, in vivo): +
- Behavior of gene caused by administration of chemical substance, Gene No. 725 ([1]; rat, in vivo): −
- Behavior of gene caused by administration of chemical substance, Gene No. 813 ([1]; rat, in vivo): −
- Behavior of gene caused by administration of chemical substance, Gene No. 893 ([1]; rat, in vivo): −
- Behavior of gene caused by administration of chemical substance, Gene No. 1119 ([1]; rat, in vivo): −
- Behavior of gene caused by administration of chemical substance, Gene No. 1131 ([1]; rat, in vivo): +
- Behavior of gene caused by administration of chemical substance, Gene No. 1163 ([1]; rat, in vivo): −
- Behavior of gene caused by administration of chemical substance, Gene No. 1334 ([1]; rat, in vivo): −
- Behavior of gene caused by administration of chemical substance, Gene No. 1494 ([1]; rat, in vivo): −
- Behavior of gene caused by administration of chemical substance, Gene No. 1562 ([1]; rat, in vivo): −
- Behavior of gene caused by administration of chemical substance, Gene No. 1741 ([1]; rat, in vivo): −
- Behavior of gene caused by administration of chemical substance, Gene No. 1993 ([1]; rat, in vivo): −
- Behavior of gene caused by administration of chemical substance, Gene No. 2026 ([1]; rat, in vivo): −
- Behavior of gene caused by administration of chemical substance, Gene No. 2045 ([1]; rat, in vivo): −
- Behavior of gene caused by administration of chemical substance, Gene No. 2203 ([1]; rat, in vivo): −
- Behavior of gene caused by administration of chemical substance, Gene No. 2494 ([1]; rat, in vivo): −
- Behavior of gene caused by administration of chemical substance, Gene No. 2546 ([1]; rat, in vivo): −
- Behavior of gene caused by administration of chemical substance, Gene No. 3776 ([1]; rat, in vivo): −
- Behavior of gene caused by administration of chemical substance, Gene No. 3929 ([1]; rat, in vivo): −
- Behavior of gene caused by administration of chemical substance, Gene No. 4095 ([1]; rat, in vivo): −
- Behavior of gene caused by administration of chemical substance, Gene No. 4218 ([1]; rat, in vivo): −
- Behavior of gene caused by administration of chemical substance, Gene No. 4846 ([1]; rat, in vivo): −
- Behavior of gene caused by administration of chemical substance, Gene No. 4973 ([1]; rat, in vivo): −
- Behavior of gene caused by administration of chemical substance, Gene No. 5600 ([1]; rat, in vivo): −
- Behavior of gene caused by administration of chemical substance, Gene No. 5634 ([1]; rat, in vivo): −
- Behavior of gene caused by administration of chemical substance, Gene No. 5726 ([1]; rat, in vivo): −
- Behavior of gene caused by administration of chemical substance, Gene No. 5878 ([1]; rat, in vivo): −
- Behavior of gene caused by administration of chemical substance, Gene No. 6026 ([1]; rat, in vivo): +
- Behavior of gene caused by administration of chemical substance, Gene No. 6182 ([1]; rat, in vivo): −
- Behavior of gene caused by administration of chemical substance, Gene No. 6303 ([1]; rat, in vivo): +
- Behavior of gene caused by administration of chemical substance, Gene No. 6620 ([1]; rat, in vivo): −
- Behavior of gene caused by administration of chemical substance, Gene No. 6742 ([1]; rat, in vivo): −
- Liver carcinogenicity (liver): Cr−
- Carcinogenicity (rodent): C−
